Entries after “also recorded” stand apart in the source; their conditions may differ. Where no end group is shown, it is not given here. The star is where a group is joined. FITC = O=C1OC2(c3ccc(O)cc3Oc3cc(O)ccc32)c2ccc(NC(=S)*)cc21
Experiments:
HGF [1] = assay: Binding of HGF to peptides displayed on bacteria, regular vs stringent washing, flow cytometry; design: species or system human; conditions: PE-A fluorescence; for binding to HGF in washed group: displayed on bacteria, washed (PBS pH 7.4, 3 times, 4°C, 10 min) vs regular washing
Protocol: Peptide physicochemical properties were preliminarily analyzed with bacteria clones. To evaluate the binding ability of peptides on the surface of bacteria to HGF, the PE-A fluorescence intensity of each clone with different wash procedures were determined by flow cytometry. Bacteria clones undergoing regular or stringent washing procedures after incubation with HGF were prepared. […] Bacteria clones were subcultured and induced as described before. Then, 10^7 bacteria of each clone were incubated with biotinylated HGF referring to sorting procedure. After incubating with HGF, bacteria were divided into two groups. The ‘original’ group was washed referring to sorting procedure, and the ‘washed’ group would have a tough washing. After centrifuged at 3000 × g for 5 minutes, bacteria in ‘washed’ group were resuspended by 1 mL phosphate buffered saline (PBS, PH 7.4) and inverted at 4°C for 10 minutes. The washing steps were repeated for 3 times. Samples from two groups were analyzed by flow cytometry.

HGF [2] = assay: ELISA, peptides coated on fluorescence plates and incubated with HGF; type: binding, human; conditions: peptide coated, incubated with HGF
Protocol: (§1) To pre-assess the binding ability of peptide to HGF, peptides were coated on the fluorescence plates and incubated with HGF. The well coated with HGP-1 had at least 1500 times higher RFU than the one with SP-H1. […] In order to obtain a precise affinity data of HGP-1, the affinity and kinetics of HGP-1 against HGF was detected by SPR technique (Figure 3a). HGF was immobilized on the surface of a CM5 chip. […] Different concentrations of HGP-1 were injected over the surface of the chip followed by dissociation in buffer without peptide.

A549 cells [3] = type: cell-based, human
Protocol: A549 cells were seeded in a 96-well plate at a density of 7000 cells per well. After overnight culture, cells were starved with serum free DMEM medium for 48 hours. […] After cultured for 4 days, the cell culture medium was changed with fresh medium containing 0.5 mg/mL 3-(4, 5-Dimethylthiazol-2-yl)-2, 5-diphenyltetrazolium bromide (MTT) solution for another 4 hours incubation at 37°C, in 5% CO2. Then, medium was removed and cells were lysed with dimethyl sulfoxide. The absorption of the solution in each well was measured at 490 nm on a VECTOR X4 Multilabel Plate Reader. IC50 value was also determined and calculated by GraphPad Prism 5.

MDA-MB-435s cells [4] = assay: Wound healing (scratch) migration assay with HGF; type: cell-based, human; conditions: HGF 0.625 nM, 2-day treatment
Protocol: MDA-MB-435s cells were plated on a 24-well plate (1 × 10^5 cells/well), grown to an 80–90% confluent cell monolayer, and serum-starved for 24 hours. Wounds were scratched gently with tip of a plastic pipet and washed twice with PBS. Subsequently, HGF (0.625 nM) alone or coupled with peptides at the concentrations of 61.5 nM and 615 nM were added into the wells for 2 days treatment. Each well was photographed at 10 × magnification with light microscope before and after peptide treatment. The cell migration capabilities were assessed by calculating the width alteration of the wound area by Photoshop. The percentage of cell migration followed the equation: Percent migration=width before treatment-width after treatment/width before treatment×100%

MDA-MB-435s cells [5] = assay: Wound healing assay without HGF (non-specific inhibition); type: cell-based, human; conditions: 61.5 nM and 615 nM; one day, medium with 10% FBS; n = 3
Protocol: Wound healing assay was applied to evaluate the inhibitory effect of peptides to cell migration after one-day incubation with peptides at different concentrations in medium with 10% FBS.

human full length HGF = target: T1, human full length HGF (Homo sapiens, UniProt P14210); assay: SPR affinity and kinetics; type: binding; conditions: Biacore X100, CM5 chip
T1 construct: purchased Sino Biological Inc. 10463- NHAC-A
T1 sequence (P14210 32-728): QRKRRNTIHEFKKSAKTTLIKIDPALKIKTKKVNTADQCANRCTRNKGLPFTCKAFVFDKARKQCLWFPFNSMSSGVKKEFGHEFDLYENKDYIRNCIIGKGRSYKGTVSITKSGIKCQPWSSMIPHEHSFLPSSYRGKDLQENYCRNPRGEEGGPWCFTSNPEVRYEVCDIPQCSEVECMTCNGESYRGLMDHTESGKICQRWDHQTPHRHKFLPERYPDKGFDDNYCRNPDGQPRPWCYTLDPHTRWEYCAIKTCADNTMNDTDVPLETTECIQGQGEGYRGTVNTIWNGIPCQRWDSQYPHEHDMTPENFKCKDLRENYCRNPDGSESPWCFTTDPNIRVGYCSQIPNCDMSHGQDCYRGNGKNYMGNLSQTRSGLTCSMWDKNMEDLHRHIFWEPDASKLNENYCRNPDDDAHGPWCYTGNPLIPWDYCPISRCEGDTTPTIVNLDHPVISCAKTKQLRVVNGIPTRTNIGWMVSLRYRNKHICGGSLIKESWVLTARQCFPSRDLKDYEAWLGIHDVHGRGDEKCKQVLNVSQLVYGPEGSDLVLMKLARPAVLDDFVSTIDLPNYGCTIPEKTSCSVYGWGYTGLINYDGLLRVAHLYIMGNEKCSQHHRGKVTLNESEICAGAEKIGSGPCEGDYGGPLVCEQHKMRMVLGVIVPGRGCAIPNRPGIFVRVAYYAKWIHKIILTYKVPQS
Protocol: as §1
Kinetic (ka and kd) and affinity constant (KD) of soluble peptide were determined by surface plasmon resonance technique on a Biacore X100 instrument (GE healthcare). The research-grade CM5 sensor chip was activated following the process which was recommended in the amino coupling reagent kit. Human full length HGF was dissolved in PBS and diluted to a suitable concentration by 20 mM NaCOOH buffer (pH4.0) and immobilized on the chip, and 2000 resonance units were immobilized. The remaining reactive groups were inactivated by ethanolamine. The peptide was dissolved and diluted by HBS-EP ([…], 150 mM NaCl, 3 mM EDTA-Na2 and 0.005% P20, pH7.4). Samples composed of concentrations ranging from 0 to 100 μM of peptides were injected over the protein surface. […] Ka, Kd and KD were calculated by Biacore X100 Evaluation software.

A549 cells [6] = assay: MTT cytotoxicity in HGF-free environment; conditions: 61.5 nM, 615 nM, 3.075 μM; 4-day, medium with 10% FBS; n = 4
Protocol: MTT assay was also used to assess the cytotoxicity of peptides after 4-day incubation with peptides at different concentrations in the medium with 10% FBS. The cells were seeded in the 96-well plate at density of 2000 cells per well.

[7] = target: T2, Recombinant human full length HGF (human, UniProt P14210 32-728); assay: cell-based or functional assay
T2 sequence (P14210 32-728): as above

[8] = target: T2, Recombinant human full length HGF; assay: SPR; Biacore X100; HGF immobilised on a CM5 chip by amine coupling (2000 RU); peptide 0 to 100 μM in HBS-EP pH 7.4, 30 μL/min, 2 minutes injection, 8 minutes dissociation; conditions: both partners purified

Molecule: TLYEVDLREWCAGIVG [HGP-2]
- binding to HGF in washed group (HGF [1]): had an obvious reduction
- RFU relative to SP-H1 coated well (HGF [2]): 700 times
- inhibitory effect on cell proliferation (A549 cells [3]; 61.5 nM, 615 nM, 3.075 μM, HGF, 4-day treatment, n = 3): inhibited
- inhibitory effect on cell migration (MDA-MB-435s cells [4]): inhibited; also recorded: displayed a similar effect on MDA-MB-435s
- inhibitory effect on migration without HGF (MDA-MB-435s cells [5]): no obvious inhibitory effect

Molecule: TYFTWWELSPGCEEH [HGP-3]
- binding capability to HGF when displayed on the surface of bacteria, compared with HGP-2 (HGF [1]; flow cytometry): higher binding capability to HGF compared with HGP-2
- binding to HGF in washed group (HGF [1]): bound to their targets as well as the regular ones

Molecule: HRGLKWEIVPWSGCG [HGP-1]
- kon (human full length HGF; HBS-EP pH 7.4, 30 μL/min, 2 min injection, read-out: ka): 698 M⁻¹ s⁻¹
- kb (human full length HGF; HBS-EP pH 7.4, 8 min dissociation, printed kb): 0.001243 s⁻¹
- IC50 (A549 cells [3]; 48 h): 496 µM
- cytotoxicity to cell proliferation in HGF-free environment (A549 cells [6]): did not exhibit detectable cytotoxicity

B1: HGF binding peptide-1, soluble synthetic peptide (peptide)
peptide: {FITC}-HRGLKWEIVPWSGCG
notes: the peptide of bacteria clone 1, synthesized free of bacteria; The methods say in general that FITC was labeled at the N-terminal of the peptides; also called HGP-1; FITC-labeled HGP-1; source: synthetic peptide (Shanghai Bootech Bioscience & Technology Co., Ltd.)
- IC50 of inhibition of HGF (1 nM)-mediated A549 proliferation, MTT assay, 4 days [7]: 496 µM
- Kd [8]: 1.73 µM
- koff [8]: 0.00124 s⁻¹
- kon [8]: 698 M⁻¹ s⁻¹
